From patent US5523315A, “N-(hydroxyethyl)butanediamide derivatives” (Bio-Mega/Boehringer Ingelheim Research Inc., priority 1993, dated 1996)

target: T1, human renin (Homo sapiens, UniProt P00797); test: plasma renin assay (inhibition of human renin; angiotensin I generated, measured by radioimmunoassay); assay type: biochemical; conditions: human plasma pool, pH 6.0, 2 h incubation at 37°
T1 construct: A human plasma pool is used as the source of both the substrate (angiotensinogen) and the enzyme (renin); from tissue; host or cells: pooled human plasma
T1 sequence (P00797 67-406): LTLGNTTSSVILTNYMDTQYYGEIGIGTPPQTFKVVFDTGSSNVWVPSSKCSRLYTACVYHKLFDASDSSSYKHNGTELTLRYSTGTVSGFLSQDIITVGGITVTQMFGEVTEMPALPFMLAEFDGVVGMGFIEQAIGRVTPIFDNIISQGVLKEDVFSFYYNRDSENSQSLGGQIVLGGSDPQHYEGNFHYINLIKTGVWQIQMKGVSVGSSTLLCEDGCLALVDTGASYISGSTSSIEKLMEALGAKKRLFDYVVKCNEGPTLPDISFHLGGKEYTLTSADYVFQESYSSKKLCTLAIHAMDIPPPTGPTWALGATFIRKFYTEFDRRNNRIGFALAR
Protocol: The assay is performed as follows: The test compound (i.e. the inhibitor) is dissolved in dimethylsulfoxide (1 mM stock solution) and diluted with an aqueous buffer solution of 270 mM 2-(N-morpholino)ethanesulfonic acid and 1% human serum albumin (pH 5.85, also containing dimercaprol and 8-hydroxyquinoline sulfate in accordance with the instructions of the RIA kit noted below) to give an assay mixture in which the final dimethylsulfoxide content is 1% (v/v).
A human plasma pool is used as the source of both the substrate (angiotensinogen) and the enzyme (renin). The reaction is initiated by the addition of 50 μL of human plasma pool to 50 μL of various concentrations of inhibitor in the 1% dimethylsulfoxide assay buffer. The plasma renin activity is measured by the amount of angiotensin I generated at pH 6.0 following a 2 h incubation at 37°.
Quantitation of angiotensin I is performed by radioimmunoassay (RIA kit from New England Nuclear-Dupont, Mississauga, ON, Canada). The enzymatic activity of renin is expressed in ng of angiotensin I generated (/mL/2 h). The extent of inhibition of the reaction is determined from the amount of angiotensin I generated in reference to a control prepared without inhibitor. Nonlinear regression analysis is used to calculate the IC50 values, i.e. the molar concentration of the test compound required to cause a 50% inhibition of the enzyme activity.

Row | SMILES | IC50 [nM]
1 | CN(C)C(=O)CN(CC1(O)CCCCC1)C(=O)C[C@@H](CC1CC1)C(=O)N[C@@H](CC1CCCCC1)[C@@H](O)[C@@H]1CC(C)(C)N(C)C1=O [Compound 38, N^4-[(1-hydroxycyclohexyl)methyl]-N^4-[2-(dimethylamino)-2-oxoethyl]-N^1-[1(S)-(cyclohexylmethyl)-2(S)-hydroxy-2-(1,5,5-trimethyl-2-oxopyrrolidin-3(S)-yl)ethyl]-2(R)-(cyclopropylmethyl)butanediamide] | 15
2 | CC(C)C[C@H](O)[C@H](O)[C@H](CC1CCCCC1)NC(=O)[C@@H](CC(=O)N(C)CC1(O)CCCCC1)Cc1cscn1 [Compound 30, N^4-[(1-hydroxycyclohexyl)methyl]-N^4-methyl-N^1-[1(S)-(cyclohexylmethyl)-2(R),3(S)-dihydroxy-5-methylhexyl]-2(R)-(4-thiazolylmethyl)butanediamide] | 12
3 | CC(C)C[C@H](O)[C@H](O)[C@H](CC1CCCCC1)NC(=O)[C@@H](CC(=O)N(CCc1ccccn1)CC1(O)CCCCC1)CC1CC1 [Compound 7, N^4-[(1-hydroxycyclohexyl)methyl]-N^4-[2-(2-pyridinyl)ethyl]-N^1-[1(S)-(cyclohexylmethyl)-2(R),3(S)-dihydroxy-5-methylhexyl]-2(R)-(cyclopropylmethyl)butanediamide] | 53
4 | CC(C)C[C@H](O)[C@H](O)[C@H](CC1CCCCC1)NC(=O)[C@@H](CC(=O)N(CC(=O)N(C)C)CC1(O)CCCCC1)Cc1c[nH]cn1 [Compound 24, N^4-[(1-hydroxycyclohexyl)methyl]-N^4-[2-(dimethylamino)-2-oxoethyl]-N^1-[1(S)-(cyclohexylmethyl)-2(R),3(S)-dihydroxy-5-methylhexyl]-2(R)-(1H-imidazol-4-ylmethyl)-butanediamide] | 1.8
5 | CC(C)C[C@H](O)[C@H](O)[C@H](CC1CCCCC1)NC(=O)[C@@H](CC(=O)N(Cc1cccnc1)CC1(O)CCCCC1)CC1CC1 [Compound 26, N^4-[(1-hydroxycyclohexyl)methyl]-N^4-(3-pyridinylmethyl)-N^1-[1(S)-(cyclohexylmethyl)-2(R),3(S)-dihydroxy-5-methylhexyl]-2(R)-(cyclopropylmethyl)butanediamide] | 26
6 | CC(C)C[C@H](O)[C@H](O)[C@H](CC1CCCCC1)NC(=O)[C@@H](CC(=O)N(CC1CCCCC1)CC(C)(C)O)CC1CC1 [Compound 32, N^4-(cyclohexylmethyl)-N^4-(2-hydroxy-2-methylpropyl)-N^1-[1(S)-(cyclohexylmethyl)-2(R),3(S)-dihydroxy-5-methylhexyl]-2(R)-(cyclopropylmethyl)butanediamide] | 46

Further lines, results first:

Row | IC50 [nM] | SMILES
7 | 89 | CC(C)C[C@H](O)[C@H](O)[C@H](CC1CCCCC1)NC(=O)[C@@H](CC(=O)N[C@@H](CO)Cc1ccccc1)CC1CC1 [Compound 13, N^4-(R)-[1-(hydroxymethyl)-2-phenylethyl]-N^1-[1(S)-(cyclohexylmethyl)-2(R),3(S)-dihydroxy-5-methylhexyl]-2(R)-(cyclopropylmethyl)butanediamide]
8 | 74 | CC(C)C[C@H](O)[C@H](O)[C@H](CC1CCCCC1)NC(=O)[C@@H](CC(=O)NCC(O)c1ccccc1)CC1CC1 (stereo partly drawn) [Compound 10, N^4-(R,S)-(2-hydroxy-2-phenylethyl)-N^1-[1(S)-(cyclohexylmethyl)-2(R),3(S)-dihydroxy-5-methylhexyl]-2(R)-(cyclopropylmethyl)butanediamide]
9 | 130 | CC(C)C[C@H](O)[C@H](O)[C@H](CC1CCCCC1)NC(=O)[C@@H](CC(=O)N(Cc1ccccc1)CC(C)(C)O)CC1CC1 [Compound 21, N^4-benzyl-N^4-(2-hydroxy-2-methylpropyl)-N^1-[1(S)-(cyclohexylmethyl)-2(R),3(S)-dihydroxy-5-methylhexyl]-2(R)-(cyclopropylmethyl)butanediamide]
